Results published in PMC3961306, “Comparison of the Cancer Gene Targeting and Biochemical Selectivities of All Targeted Kinase Inhibitors Approved for Clinical Use” (PLoS ONE, 2014).

How the values were obtained:
Test in all cases: Kinase profiling in a biochemical assay panel (mobility shift assays and ELISA), %-inhibition at 1 μM; selectivity entropy
[1] = molecular target: panel of more than 300 wild-type and mutant kinases (313 kinase panel) (Homo sapiens, UniProt P53667); conditions: kinase LIMK1; compound at 1 μM
[2] = molecular target: T1, panel of more than 300 wild-type and mutant kinases (313 kinase panel) (Homo sapiens, UniProt Q96BR1)
T1 sequence (Q96BR1 1-496): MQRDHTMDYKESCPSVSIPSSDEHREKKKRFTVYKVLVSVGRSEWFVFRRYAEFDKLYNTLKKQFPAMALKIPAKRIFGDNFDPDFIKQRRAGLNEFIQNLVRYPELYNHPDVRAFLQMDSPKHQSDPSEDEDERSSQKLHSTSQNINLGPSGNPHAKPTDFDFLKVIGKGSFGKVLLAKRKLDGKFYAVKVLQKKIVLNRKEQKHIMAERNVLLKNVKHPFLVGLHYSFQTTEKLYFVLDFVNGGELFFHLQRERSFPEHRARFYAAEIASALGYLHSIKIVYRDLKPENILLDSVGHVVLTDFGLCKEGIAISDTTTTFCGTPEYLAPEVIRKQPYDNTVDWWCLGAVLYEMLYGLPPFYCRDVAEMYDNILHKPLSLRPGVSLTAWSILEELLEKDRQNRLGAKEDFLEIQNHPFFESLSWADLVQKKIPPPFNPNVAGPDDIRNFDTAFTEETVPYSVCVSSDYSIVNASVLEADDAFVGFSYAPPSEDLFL

[3] = molecular target: panel of more than 300 wild-type and mutant kinases (313 kinase panel) (Homo sapiens, UniProt Q9P0L2)
Chain of panel of more than 300 wild-type and mutant kinases (313 kinase panel) (Homo sapiens, UniProt Q9P0L2) (Q9P0L2 whole entry, change not shown): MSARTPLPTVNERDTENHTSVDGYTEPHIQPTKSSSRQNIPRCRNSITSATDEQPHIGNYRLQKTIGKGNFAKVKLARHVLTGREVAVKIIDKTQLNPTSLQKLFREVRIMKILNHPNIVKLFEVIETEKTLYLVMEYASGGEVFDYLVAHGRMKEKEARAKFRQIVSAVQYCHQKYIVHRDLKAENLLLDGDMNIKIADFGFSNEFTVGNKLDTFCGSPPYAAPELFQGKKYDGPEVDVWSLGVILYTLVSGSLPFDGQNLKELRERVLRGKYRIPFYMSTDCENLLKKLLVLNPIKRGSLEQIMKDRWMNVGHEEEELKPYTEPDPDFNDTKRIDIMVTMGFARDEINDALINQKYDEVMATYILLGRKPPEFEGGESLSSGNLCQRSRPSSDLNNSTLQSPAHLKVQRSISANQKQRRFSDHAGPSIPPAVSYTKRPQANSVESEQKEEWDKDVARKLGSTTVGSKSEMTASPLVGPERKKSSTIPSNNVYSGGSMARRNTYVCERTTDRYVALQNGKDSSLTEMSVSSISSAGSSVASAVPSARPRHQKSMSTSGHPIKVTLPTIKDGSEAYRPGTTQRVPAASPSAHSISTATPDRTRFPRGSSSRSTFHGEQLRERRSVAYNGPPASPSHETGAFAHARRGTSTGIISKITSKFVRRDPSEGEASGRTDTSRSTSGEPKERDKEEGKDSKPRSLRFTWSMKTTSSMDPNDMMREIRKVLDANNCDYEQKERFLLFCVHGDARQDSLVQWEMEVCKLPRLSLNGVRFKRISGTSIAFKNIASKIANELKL

[4] = molecular target: T2, panel of more than 300 wild-type and mutant kinases (313 kinase panel) (Homo sapiens, UniProt P51813); conditions: kinase BMX; 1 μM compound
T2 sequence (P51813 1-675): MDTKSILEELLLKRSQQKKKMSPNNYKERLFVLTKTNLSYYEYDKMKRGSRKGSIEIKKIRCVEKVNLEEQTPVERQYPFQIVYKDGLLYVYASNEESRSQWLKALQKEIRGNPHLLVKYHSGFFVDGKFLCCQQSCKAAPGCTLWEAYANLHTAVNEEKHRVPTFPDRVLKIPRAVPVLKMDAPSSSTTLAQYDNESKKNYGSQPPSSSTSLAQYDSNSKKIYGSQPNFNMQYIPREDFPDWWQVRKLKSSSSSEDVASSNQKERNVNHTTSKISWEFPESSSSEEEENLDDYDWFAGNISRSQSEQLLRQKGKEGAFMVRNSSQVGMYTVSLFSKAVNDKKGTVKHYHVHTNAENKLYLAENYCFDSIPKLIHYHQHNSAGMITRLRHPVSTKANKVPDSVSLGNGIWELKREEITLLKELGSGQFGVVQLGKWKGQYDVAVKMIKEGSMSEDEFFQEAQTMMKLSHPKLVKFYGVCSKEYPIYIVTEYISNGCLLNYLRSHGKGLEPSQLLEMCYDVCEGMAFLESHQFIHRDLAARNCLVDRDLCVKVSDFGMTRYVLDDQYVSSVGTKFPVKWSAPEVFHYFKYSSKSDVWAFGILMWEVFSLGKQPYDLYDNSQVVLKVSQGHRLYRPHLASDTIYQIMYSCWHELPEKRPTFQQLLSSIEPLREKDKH

[5] = molecular target: panel of more than 300 wild-type and mutant kinases (313 kinase panel) (Homo sapiens, UniProt P10721, T670I)
Chain of panel of more than 300 wild-type and mutant kinases (313 kinase panel) (Homo sapiens, UniProt P10721, T670I) (P10721 26-976 T670I): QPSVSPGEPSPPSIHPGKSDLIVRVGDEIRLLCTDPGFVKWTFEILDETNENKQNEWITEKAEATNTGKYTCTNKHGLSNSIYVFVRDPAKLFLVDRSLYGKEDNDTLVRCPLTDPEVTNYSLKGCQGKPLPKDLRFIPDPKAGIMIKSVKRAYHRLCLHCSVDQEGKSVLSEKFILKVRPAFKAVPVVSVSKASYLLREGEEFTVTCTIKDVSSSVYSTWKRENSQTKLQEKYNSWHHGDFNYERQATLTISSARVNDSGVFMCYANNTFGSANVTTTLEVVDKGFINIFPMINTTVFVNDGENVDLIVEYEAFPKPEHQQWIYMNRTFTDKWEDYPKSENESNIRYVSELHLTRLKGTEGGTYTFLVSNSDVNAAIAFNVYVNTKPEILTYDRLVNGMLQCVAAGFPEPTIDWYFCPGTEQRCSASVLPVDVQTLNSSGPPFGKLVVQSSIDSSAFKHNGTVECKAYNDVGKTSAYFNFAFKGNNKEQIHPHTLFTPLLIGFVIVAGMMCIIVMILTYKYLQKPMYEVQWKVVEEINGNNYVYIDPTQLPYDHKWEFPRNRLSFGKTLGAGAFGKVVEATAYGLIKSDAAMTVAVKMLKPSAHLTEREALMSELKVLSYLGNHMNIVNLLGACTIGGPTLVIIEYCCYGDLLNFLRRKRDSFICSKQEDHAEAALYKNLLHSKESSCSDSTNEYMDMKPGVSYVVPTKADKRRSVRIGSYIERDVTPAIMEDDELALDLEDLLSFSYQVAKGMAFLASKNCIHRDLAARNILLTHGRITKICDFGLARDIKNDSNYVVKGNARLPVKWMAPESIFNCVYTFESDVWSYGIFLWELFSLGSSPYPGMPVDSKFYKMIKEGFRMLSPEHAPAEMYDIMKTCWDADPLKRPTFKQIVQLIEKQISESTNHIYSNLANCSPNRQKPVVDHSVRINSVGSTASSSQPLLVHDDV

[6] = molecular target: panel of more than 300 wild-type and mutant kinases (313 kinase panel) (Homo sapiens, UniProt P09769); conditions: kinase FGR; compound at 1 μM
[7] = molecular target: panel of more than 300 wild-type and mutant kinases (313 kinase panel) (Homo sapiens, UniProt P22607, K650E); conditions: kinase FGFR3(K650E); compound at 1 μM
Chain of panel of more than 300 wild-type and mutant kinases (313 kinase panel) (Homo sapiens, UniProt P22607, K650E) (P22607 23-806 K650E): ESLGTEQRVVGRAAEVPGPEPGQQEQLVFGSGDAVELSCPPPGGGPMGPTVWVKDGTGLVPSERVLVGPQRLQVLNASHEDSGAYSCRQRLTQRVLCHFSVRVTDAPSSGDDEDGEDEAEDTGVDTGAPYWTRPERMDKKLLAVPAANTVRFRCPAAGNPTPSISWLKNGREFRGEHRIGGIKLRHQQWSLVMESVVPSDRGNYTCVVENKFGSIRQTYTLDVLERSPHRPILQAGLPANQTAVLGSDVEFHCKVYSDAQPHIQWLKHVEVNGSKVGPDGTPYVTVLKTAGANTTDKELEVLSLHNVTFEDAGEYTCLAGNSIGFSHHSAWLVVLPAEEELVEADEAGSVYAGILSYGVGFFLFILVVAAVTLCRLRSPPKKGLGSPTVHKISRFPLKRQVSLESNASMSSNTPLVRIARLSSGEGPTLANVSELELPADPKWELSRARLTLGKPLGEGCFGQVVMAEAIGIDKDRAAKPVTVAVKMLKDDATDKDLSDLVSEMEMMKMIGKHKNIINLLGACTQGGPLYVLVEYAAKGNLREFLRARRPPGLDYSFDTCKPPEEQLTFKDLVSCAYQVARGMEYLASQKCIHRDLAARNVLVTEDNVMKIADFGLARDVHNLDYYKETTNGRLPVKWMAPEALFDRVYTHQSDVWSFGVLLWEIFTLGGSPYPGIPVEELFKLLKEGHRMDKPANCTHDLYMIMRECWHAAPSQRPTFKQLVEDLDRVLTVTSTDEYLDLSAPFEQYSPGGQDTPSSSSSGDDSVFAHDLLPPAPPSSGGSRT

[8] = molecular target: panel of more than 300 wild-type and mutant kinases (313 kinase panel) (Homo sapiens, UniProt P27448)
Chain of panel of more than 300 wild-type and mutant kinases (313 kinase panel) (Homo sapiens, UniProt P27448) (P27448 whole entry, stated change not applied): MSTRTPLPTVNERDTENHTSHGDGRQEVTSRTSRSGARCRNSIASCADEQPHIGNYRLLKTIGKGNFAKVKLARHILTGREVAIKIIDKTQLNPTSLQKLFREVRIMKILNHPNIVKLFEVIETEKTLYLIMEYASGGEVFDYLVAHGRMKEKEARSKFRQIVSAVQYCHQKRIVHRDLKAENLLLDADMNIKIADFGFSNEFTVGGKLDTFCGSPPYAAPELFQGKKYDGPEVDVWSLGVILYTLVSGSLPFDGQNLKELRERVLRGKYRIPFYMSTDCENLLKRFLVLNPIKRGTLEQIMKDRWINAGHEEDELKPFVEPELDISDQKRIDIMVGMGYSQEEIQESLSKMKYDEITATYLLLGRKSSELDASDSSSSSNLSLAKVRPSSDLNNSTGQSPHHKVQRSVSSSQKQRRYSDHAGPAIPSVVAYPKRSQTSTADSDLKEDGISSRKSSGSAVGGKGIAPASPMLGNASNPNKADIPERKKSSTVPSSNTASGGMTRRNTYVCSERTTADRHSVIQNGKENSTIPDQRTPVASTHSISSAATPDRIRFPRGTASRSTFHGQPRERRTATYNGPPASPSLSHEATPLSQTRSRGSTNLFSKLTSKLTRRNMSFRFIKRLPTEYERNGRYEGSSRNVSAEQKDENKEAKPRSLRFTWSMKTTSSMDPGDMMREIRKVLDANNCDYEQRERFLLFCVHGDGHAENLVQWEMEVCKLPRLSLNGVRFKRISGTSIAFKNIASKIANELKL

[9] = molecular target: panel of more than 300 wild-type and mutant kinases (313 kinase panel) (Homo sapiens, UniProt Q13557); conditions: kinase CaMK2δ; 1 μM compound
Chain of panel of more than 300 wild-type and mutant kinases (313 kinase panel) (Homo sapiens, UniProt Q13557) (Q13557 whole entry, stated change not applied): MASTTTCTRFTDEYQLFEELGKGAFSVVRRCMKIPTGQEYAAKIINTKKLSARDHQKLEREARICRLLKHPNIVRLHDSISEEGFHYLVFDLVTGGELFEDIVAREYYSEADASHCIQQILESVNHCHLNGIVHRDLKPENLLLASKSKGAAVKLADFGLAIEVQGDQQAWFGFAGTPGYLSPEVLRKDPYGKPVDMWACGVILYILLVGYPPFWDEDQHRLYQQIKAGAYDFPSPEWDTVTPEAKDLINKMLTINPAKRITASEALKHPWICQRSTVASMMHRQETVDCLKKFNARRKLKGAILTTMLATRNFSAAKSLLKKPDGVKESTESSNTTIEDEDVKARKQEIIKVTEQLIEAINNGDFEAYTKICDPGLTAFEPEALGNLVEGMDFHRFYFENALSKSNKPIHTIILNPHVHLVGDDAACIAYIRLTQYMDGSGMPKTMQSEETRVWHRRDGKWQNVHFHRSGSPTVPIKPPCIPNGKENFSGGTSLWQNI

[10] = molecular target: panel of more than 300 wild-type and mutant kinases (313 kinase panel) (Homo sapiens, UniProt P48730)
[11] = molecular target: panel of more than 300 wild-type and mutant kinases (313 kinase panel) (Homo sapiens, UniProt P17252); conditions: kinase PKCα; 1 μM
[12] = kinase KIT(T670I), compound at 1 μM

| Structure (SMILES) | %-inhibition of LIMK1 [1] [%] | %-inhibition of SGK3 ([2]; 1 µM) [%] | %-inhibition of MARK1 ([3]; 1 µM) [%] | %-inhibition, BMX [4] [%] | %-inhibition of KIT(T670I) ([5]; 1 µM) [%] | %-inhibition of FGR [6] [%] | %-inhibition of FGFR3(K650E) [7] [%] | %-inhibition of MARK3 ([8]; 1 µM) [%] | %-inhibition, CaMK2δ [9] [%] | %-inhibition, CK1δ ([10]; 1 µM) [%] | %-inhibition of PKCα [11] [%] | %-inhibition of SGK3 ([2]; kinase SGK3, 1 μM) [%] | %-inhibition of MARK1 ([3]; kinase MARK1, compound at 1 μM) [%] | %-inhibition of KIT(T670I) [5, 12] [%] | %-inhibition of MARK3 ([8]; kinase MARK3, compound at 1 μM) [%] | %-inhibition, CK1δ ([10]; kinase CK1δ, 1 μM compound) [%] |
| --- | --- | --- | --- | --- | --- | --- | --- | --- | --- | --- | --- | --- | --- | --- | --- | --- |
| CS(=O)(=O)CCNCc1ccc(-c2ccc3ncnc(Nc4ccc(OCc5cccc(F)c5)c(Cl)c4)c3c2)o1 [lapatinib] | -2.33 | 4.58 | 9 | 9 | 0 | 10 | 0.415 | 3.43 | -33 | -3.34 | 1 |  |  |  |  |  |
| CO[C@H]1C[C@@H]2CC[C@@H](C)[C@@](O)(O2)C(=O)C(=O)N2CCCC[C@H]2C(=O)O[C@H]([C@H](C)C[C@@H]2CC[C@@H](OCCO)[C@H](OC)C2)CC(=O)[C@H](C)/C=C(\C)[C@@H](O)[C@@H](OC)C(=O)[C@H](C)C[C@H](C)/C=C/C=C/C=C/1C [everolimus] | 3.28 |  |  | -5.3 |  | 1 | -4.55 |  | -2.12 |  | -11 | -6.4 | -0.63 | -2.56 | -4 | -4.27 |
| CNC(=O)c1cc(Oc2ccc(NC(=O)Nc3ccc(Cl)c(C(F)(F)F)c3)c(F)c2)ccn1 [regorafenib] | 66 |  |  | -1.77 |  | 56 | 99 |  | 1.53 |  | -11 | -8 | -24 | 101 | -3.48 | -6 |
| COc1cc2nccc(Oc3ccc(NC(=O)C4(C(=O)Nc5ccc(F)cc5)CC4)cc3)c2cc1OC [cabozantinib] | 51 |  |  | 53 |  | 94 | 26 |  | 0.942 |  | -8.47 | -1.1 | -1 | 100 | -3 | 0.0601 |
